# Laboratory results reported in article PMC6934663, “Genomic and functional gene studies suggest a key role of beta-carotene oxygenase 1 like (bco1l) gene in salmon flesh color” (Scientific Reports, 2019).
# Target: T1, Bco1l (Salmo salar, UniProt A0A1S2X8G0)
# T1 construct: the ssa11 copy is truncated), expressed in carotenoid-producing E. coli XL1-Blue, 528 aa
# T1 sequence (A0A1S2X8G0 1-528): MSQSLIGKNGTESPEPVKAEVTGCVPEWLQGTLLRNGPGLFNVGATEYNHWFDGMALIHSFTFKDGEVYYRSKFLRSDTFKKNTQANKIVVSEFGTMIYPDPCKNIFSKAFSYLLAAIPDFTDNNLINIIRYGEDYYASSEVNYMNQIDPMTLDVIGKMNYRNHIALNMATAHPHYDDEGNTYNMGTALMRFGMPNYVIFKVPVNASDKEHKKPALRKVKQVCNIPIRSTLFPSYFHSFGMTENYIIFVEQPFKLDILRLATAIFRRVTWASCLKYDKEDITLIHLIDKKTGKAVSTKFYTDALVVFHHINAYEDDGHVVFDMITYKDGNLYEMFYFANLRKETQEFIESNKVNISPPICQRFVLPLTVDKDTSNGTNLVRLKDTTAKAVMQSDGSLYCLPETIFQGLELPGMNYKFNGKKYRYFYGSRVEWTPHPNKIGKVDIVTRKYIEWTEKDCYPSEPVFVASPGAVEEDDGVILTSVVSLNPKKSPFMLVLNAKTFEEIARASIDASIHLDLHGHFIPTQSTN
# Assay: HPLC of cleavage products in beta-carotene-producing E. coli
# Format: cell-based
# Settings: E. coli co-expression, IPTG 0.2 mM, 16 h at 25 °C in darkness; 15,15' oxidative cleavage
structure (smiles),measurement,value
CC1=C(/C=C/C(C)=C/C=C/C(C)=C/C=C/C=C(C)/C=C/C=C(C)/C=C/C2=C(C)CCCC2(C)C)C(C)(C)CCC1 [beta-carotene],HPLC of cleavage products in beta-carotene-producing E. coli,The results showed that Bco1l cleaved beta-carotene (Fig. 6A).
